We go through eight compounds from PubChem BioAssay (NCI).

Values joined by “and” are separate entries in the source; they are usually repeats but may differ in a detail not shown here. Identical values can stand only once.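 Results reflect a 48-hour exposure of cells in 96-well plates to compound at five concentrations. The concentration for 50% growth inhibition is given as GI50. TGI: concentration producing complete growth inhibition.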

Common to all, as to experiment: growth of human tumour cells (NCI), 48 h
Test [1] relates to A498 renal.
In test [2] the test system is HCC-2998 colon.
The test system of test [3] is LOX IMVI melanoma.
For test [4], the system named is RXF 393 renal.
The subject of test [5] is IGROV1 ovarian.
Test [6] relates to 786-0 renal.
Test [7] has as its system HL-60(TB) leukemia.
Test [8] relates to U251 CNS.
The test system of test [9] is NCI-H460 lung.
Test [10] has as its system UACC-62 melanoma.

In the case of `NCCOc1ccccc1/C=C1\c2ccccc2-c2ccc([N+](=O)[O-])cc21`, the GI50 in [1] is 1.44 µM; in test [2] it was 1.51 µM; in test [3], 1.33 µM; in test [4], 1.6 µM; in test [5], 1.35 µM; in test [6], 1.7 µM. For the same compound, the GI50 in test [7] is 1.54 µM; in test [8], 1.38 µM; in test [9] it was 0.488 µM; in [10] it was 1.54 µM. Further, the TGI in [1] stood at 2.76 µM; in test [2], 3.09 µM; in test [3], 2.66 µM; in test [4], 3.1 µM; in test [5] it was 2.68 µM; in [6] it was 3.23 µM. Moreover, the TGI turned out to be 3.07 µM in test [7], 2.74 µM in [8], 1.66 µM in [9] and 2.92 µM in [10].

Take `Cc1ccc(C2=Nc3c(N)ncnc3NC(c3ccc4c(c3)OCO4)C2)cc1` (stereo not given): the GI50 was 6.33 µM in [1]; 6.3 µM in test [2]; 6.38 µM in [3]; 3.5 µM in test [4]; 3.34 µM in test [5]; more than 100 µM in test [6]. In addition, the GI50 in test [7] was 0.718 µM; in test [8], 4.55 µM; in test [9], 3.59 µM; in test [10] it was 4.09 µM. The TGI is 35.2 µM in test [1]; 67.1 µM in test [2]; 25 µM in test [3]; 23.1 µM in test [4]; 26.2 µM in test [5]; more than 100 µM in test [6]. Further, the TGI in test [7] was more than 100 µM; in test [8], 16.3 µM; in test [9] it was 12.8 µM; in test [10] it was more than 100 µM.

In the case of `CN(C)CC(C(=O)Cc1ccccc1)c1ccccc1` (stereo not given), the GI50 in [1] was 12.4 µM; in [2], 15.9 µM; in [3], 1.39 µM; in [4] it was 2.39 µM; in test [5], 11.6 µM; in test [6], 2.18 µM. Besides, the GI50 was 1.83 µM in [7], 2.23 µM in test [8], 4.24 µM in test [9] and 6.16 µM in test [10]. Further, the TGI in test [1] is 25 µM; in test [2] it was 30.3 µM; in test [3] it was 3.04 µM; in test [4], 4.86 µM; in [5], 26.4 µM; in [6], 4.51 µM. The TGI in [7] worked out at 5.75 µM; in [8], 5.02 µM; in [9], 14.8 µM; in test [10] it was 20.1 µM.

`COc1ccc2c(Cl)cc(NC(=O)Nc3c(C)cccc3C)nc2c1`: the GI50 was 2.9 µM in test [1]; more than 100 µM in test [2]; 17.3 µM in [3]; 4.97 µM in test [4]; 21.9 µM in test [5]; 7.92 µM in test [6]. The GI50 in test [7] is more than 100 µM; in [8] it was 13.7 µM; in [9], 4.02 µM; in test [10], 64.3 µM. For the same compound, the TGI in test [1] was 22.4 µM; in test [2] it was more than 100 µM; in test [3], more than 100 µM; in [4], 24.8 µM; in test [5], more than 100 µM; in test [6], more than 100 µM. The TGI was more than 100 µM in [7], 39.2 µM in test [8], more than 100 µM in test [9] and more than 100 µM in [10].

Consider `Cc1cc(C(=O)O)c(C)n1-c1cccc(C(=O)O)c1`, for which the GI50 in [1], in test [2], in test [3], in test [4], in test [5] and in test [6] was more than 100 µM each time. The GI50 in test [7], in test [8], in test [9] and in test [10] was more than 100 µM in each case. For the same compound, the TGI in test [1], in [2], in test [3], in test [4], in [5] and in test [6] was more than 100 µM throughout. Besides, the TGI in [7], in test [8], in test [9] and in [10] was more than 100 µM in each case.

Regarding `Cc1cc(C(=O)NC(CCC(=O)O)C(=O)O)sc1CCC1CNc2nc(N)[nH]c(=O)c2C1` (stereo not given), the GI50 in [1] was 0.199 µM and 0.0945 µM; in [2], 0.0677 µM and 0.323 µM; in [3], 0.0294 µM and 0.0365 µM; in [4], 0.015 µM and < 0.0158 µM; in [5], 0.0464 µM and 0.192 µM; in [6], less than 0.01 µM. The GI50 in test [7] is 0.0366 µM and 0.0558 µM; in [8], 0.0368 µM and 0.0439 µM; in test [9], < 0.0186 µM and 0.0404 µM; in test [10], 0.049 µM and 0.0557 µM. Also, the TGI in test [1], in test [2], in test [3], in [4], in test [5] and in test [6] was more than 100 µM throughout. Besides, the TGI in test [7], in test [8], in [9] and in [10] was more than 100 µM each time.

In the case of `C[n+]1c(-c2ccc(/C=N/NC(=O)c3ccc(C(=O)N/N=C/c4ccc(-c5cn6ccccc6[n+]5C)cc4)cc3)cc2)cn2ccccc21`, the GI50 in test [1] is 172 µM; in test [2] it was 577 µM; in [3] it was 846 µM; in test [4] it was 174 µM; in test [5] it was more than 1000 µM; in [6], 126 µM. Further, the GI50 in [7] was 2.37 µM; in test [8] it was 197 µM; in [9], more than 1000 µM; in [10], 177 µM. Further, the TGI in [1] is 70.8 µM and 309 µM; in test [2], more than 1000 µM; in test [3] it was more than 1000 µM; in [4] it was > 87.2 µM and 312 µM; in [5], more than 1000 µM; in [6], 53.7 µM and 252 µM. Further, the TGI in [7] was 186 µM; in [8], 347 µM; in test [9] it was more than 1000 µM; in test [10] it was 316 µM.

Consider `CCN(CC)C(=O)N1CCN(C=S)CC1`, for which the TGI in [1], in test [2], in test [3], in test [4], in test [5] and in test [6] was more than 100 µM throughout. Further, the TGI in test [7], in [8], in [9] and in test [10] was more than 100 µM in each case.
